Data on five molecules can be found in article PMC7383607, “Kinetic and structural studies of Trypanosoma and Leishmania phosphofructokinases show evolutionary divergence and identify AMP as a switch regulating glycolysis versus gluconeogenesis” (The Febs Journal, 2020).

Data set [1] addresses T1, TcPFK (Trypanosoma cruzi phosphofructokinase) (Trypanosoma cruzi, UniProt Q4E657).
T1 construct: gene pfk; recombinant, E. coli, purified; N-terminal His6 tag (given for SPR); glycosomal homotetramer
T1 sequence (Q4E657 1-485): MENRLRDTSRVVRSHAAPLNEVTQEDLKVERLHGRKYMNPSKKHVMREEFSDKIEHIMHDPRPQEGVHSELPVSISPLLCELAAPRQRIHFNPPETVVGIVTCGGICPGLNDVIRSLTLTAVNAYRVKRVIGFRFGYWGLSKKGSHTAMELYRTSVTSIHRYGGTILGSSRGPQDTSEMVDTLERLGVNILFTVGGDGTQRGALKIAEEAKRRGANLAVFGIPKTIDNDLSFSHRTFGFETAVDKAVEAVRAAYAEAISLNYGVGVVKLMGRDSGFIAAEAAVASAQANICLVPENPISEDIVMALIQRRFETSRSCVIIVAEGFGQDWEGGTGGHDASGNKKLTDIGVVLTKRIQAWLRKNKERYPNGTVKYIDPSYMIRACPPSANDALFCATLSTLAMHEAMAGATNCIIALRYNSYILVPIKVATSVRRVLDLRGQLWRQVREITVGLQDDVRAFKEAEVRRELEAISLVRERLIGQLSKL
Put plainly: SPR steady state, His6-PFK captured on Ni-NTA chip. Format: binding. An excerpt:
SPR steady state, His6-PFK captured on Ni-NTA chip on TcPFK (Trypanosoma cruzi phosphofructokinase)

The target in data set [2] is T2, LiPFK (Leishmania infantum phosphofructokinase) (Leishmania infantum, UniProt A4I4W5).
T2 construct: gene pfk; recombinant, E. coli, purified; N-terminal His6 tag (given for SPR); glycosomal homotetramer
T2 sequence (A4I4W5 1-486): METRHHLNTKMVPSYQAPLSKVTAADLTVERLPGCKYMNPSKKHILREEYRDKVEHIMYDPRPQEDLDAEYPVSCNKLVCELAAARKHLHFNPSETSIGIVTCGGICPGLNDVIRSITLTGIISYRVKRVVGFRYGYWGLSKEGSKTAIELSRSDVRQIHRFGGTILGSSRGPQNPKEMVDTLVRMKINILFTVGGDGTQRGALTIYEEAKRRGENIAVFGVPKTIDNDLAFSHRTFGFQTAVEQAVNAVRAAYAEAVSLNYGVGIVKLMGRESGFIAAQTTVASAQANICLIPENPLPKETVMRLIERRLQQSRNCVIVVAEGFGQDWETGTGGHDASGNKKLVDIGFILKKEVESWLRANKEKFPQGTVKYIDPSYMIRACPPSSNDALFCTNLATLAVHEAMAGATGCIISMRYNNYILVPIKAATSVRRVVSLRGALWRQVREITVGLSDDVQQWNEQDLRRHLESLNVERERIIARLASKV
As to the kind of experiment: SPR steady state, His6-PFK captured on Ni-NTA chip. It is filed as binding. An excerpt:
SPR steady state, His6-PFK captured on Ni-NTA chip on LiPFK (Leishmania infantum phosphofructokinase)

The target of data set [3] is T3, TbPFK (Trypanosoma brucei phosphofructokinase) (Trypanosoma brucei, UniProt O15648).
T3 construct: gene pfk; recombinant, E. coli, purified; N-terminal His6 tag (for SPR and reaction order tests); tetramer of 53-kDa subunits
T3 sequence (O15648 1-487): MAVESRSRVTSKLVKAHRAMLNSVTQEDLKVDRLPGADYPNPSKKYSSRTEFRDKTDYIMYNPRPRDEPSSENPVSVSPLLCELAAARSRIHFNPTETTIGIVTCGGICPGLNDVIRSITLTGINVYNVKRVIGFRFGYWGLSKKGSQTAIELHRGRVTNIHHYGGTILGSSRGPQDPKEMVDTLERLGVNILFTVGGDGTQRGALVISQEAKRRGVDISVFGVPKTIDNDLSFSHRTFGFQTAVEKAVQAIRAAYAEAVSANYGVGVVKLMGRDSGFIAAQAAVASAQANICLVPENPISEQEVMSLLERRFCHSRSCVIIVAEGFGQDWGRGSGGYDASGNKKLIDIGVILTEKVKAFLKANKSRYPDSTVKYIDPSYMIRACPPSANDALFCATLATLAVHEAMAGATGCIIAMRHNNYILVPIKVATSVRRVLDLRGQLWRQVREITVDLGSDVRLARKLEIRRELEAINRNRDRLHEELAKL
Put plainly: SPR steady state, His6-PFK captured on Ni-NTA chip. Format: binding. An excerpt: SPR steady state, His6-PFK captured on Ni-NTA chip on TbPFK (Trypanosoma brucei phosphofructokinase)

Substrate in data set [4]: Nc1nc2c(ncn2[C@@H]2O[C@H](COP(=O)(O)OP(=O)(O)OP(=O)(O)O)[C@@H](O)[C@H]2O)c(=O)[nH]1
Put plainly: pyruvate kinase-lactate dehydrogenase coupled assay, A340, sigmoidal fit. Format: biochemical, Trypanosoma brucei. The conditions noted are these: 3 mM F6P, no AMP, 10 mM MgCl2, 100 mM KCl, pH 7.4, 25 °C. An excerpt: pyruvate kinase-lactate dehydrogenase coupled assay, A340, sigmoidal fit on TbPFK (Trypanosoma brucei phosphofructokinase)

Data set [5] deals with the molecule itself. Put plainly: crystal structure; TbPFK at 6 mg/mL in gel filtration buffer with 1 mM F16BP, 1 mM AMP and 500 µM PFK inhibitor, hanging drop, 18 °C, 9.5% PEG 8000, 0.1 M sodium cacodylate pH 7.4; only AMP seen bound; two tetramers in the asymmetric unit. On the technique in general: Size exclusion chromatography separates by hydrodynamic size, large species first.

Substrate in data set [6]: Nc1nc2c(ncn2[C@@H]2O[C@H](COP(=O)(O)OP(=O)(O)OP(=O)(O)O)[C@@H](O)[C@H]2O)c(=O)[nH]1
As to the kind of experiment: pyruvate kinase-lactate dehydrogenase coupled assay, A340, sigmoidal fit. Format: biochemical, Trypanosoma cruzi. As to conditions: 3 mM F6P, no AMP, 10 mM MgCl2, 100 mM KCl, pH 7.4, 25 °C. The text has this: pyruvate kinase-lactate dehydrogenase coupled assay, A340, sigmoidal fit on TcPFK (Trypanosoma cruzi phosphofructokinase)

One may read the Kd as the concentration at which binding is half-saturated. As for `Nc1ncnc2c1ncn2[C@@H]1O[C@H](COP(=O)(O)O)[C@@H](O)[C@H]1O` [AMP], the Kd in data set [1] is 1040 µM; in data set [2], 2300 µM; in data set [3] it was 470 µM.

`Nc1ncnc2c1ncn2[C@@H]1O[C@H](COP(=O)(O)OP(=O)(O)OP(=O)(O)O)[C@@H](O)[C@H]1O` [ATP]: the Kd in data set [1] was found to be 35.4 µM; in data set [2], 16.8 µM; in data set [3] it was 15.8 µM.

As for `Nc1ncnc2c1ncn2[C@@H]1O[C@H](COP(=O)(O)OP(=O)(O)O)[C@@H](O)[C@H]1O` [ADP], the figures for the Kd in data set [1], in data set [2] and in data set [3] were 730 µM, 160 µM and 560 µM, respectively.

B1: Trypanosoma brucei phosphofructokinase (enzyme)
chain: T3 sequence (O15648 1-487)
notes: ATP-dependent phosphofructokinase of Trypanosoma brucei; 53-kDa subunit; residues up to 486 are named in the structure; The N-terminal His6 tag is stated for the SPR experiments and 'His-tagged TbPFK' for the kinetics; also called TbPFK; T. brucei PFK
As a reminder, the Vmax is the top rate of the reaction or transport when substrate is in excess. The term kcat denotes the number of substrate molecules converted per active site and unit of time at saturation. Usually stoichiometry N stands for a count of units in the complex or per binding partner. For B1, in data set [4], the K0.5 is listed as 123 (8) μM, the Vmax was 38.3 µmol/min/mg and the kcat was 35.6 s⁻¹. In addition, in data set [5], the “stoichiometry N” value is 4.

B2: TcPFK (Trypanosoma cruzi phosphofructokinase) (Trypanosoma cruzi strain CL Brener) (protein)
chain: T1 sequence (Q4E657 1-485)
notes: recombinant, E. coli, purified; N-terminal His6 tag (given for SPR); glycosomal homotetramer
B2: in data set [6], the K0.5 is on record as 195 (14) μM, the Vmax was found to be 63 µmol/min/mg and the kcat was 58.7 s⁻¹.
